Laboratory results reported in article PMC5005245, “Chemical and pharmacological evaluations on the extract of Scutellaria baicalensis Georgi (Huang-Qin) prepared by various extraction methods” (SpringerPlus, 2016).

Experiments:
FRAP assay = settings: positive control, 1 mM was used; mean ± SEM (n = 3)
Method: The FRAP assay was performed in a 96-well plate as described (Firuzi et al. [2005]). Briefly, 5 µl of each sample was mixed with 150 µl of freshly prepared FRAP reagent (250 mM acetate buffer, pH 3.6; 8.3 mM 2,4,6-tripyridyl-s-triazine dissolved in 40 mM HCl and 16.7 mM FeCl3·6H2O solution). After incubation at 37 °C for 30 min, the absorbance of the solution was measured at 593 nm. Different concentrations of Fe^2+ standard solution were used for the construction of the standard curve, and ascorbic acid was used as the positive control.

[1] = DPPH free radicals scavenging assay; settings: concentration of sample which scavenges 50 % of free radicals; 30 min; mean ± SEM (n = 3)
Method: The free radicals scavenging capacities (SC) were measured and compared using the DPPH assay (Chan et al. [2010]). Briefly, 5 µl of individual extract (0.625–10 mg/ml) was mixed with 195 μl of DPPH solution (24 mg/l) in a 96-well plate. The reaction was allowed to proceed in the dark for 30 min before the absorbance of the resultant solution was measured at 515 nm using a Micro-plate Absorbance Reader (Bio-Rad, CA, USA). Ascorbic acid (Sigma-Aldrich Chemicals Co., MO, USA) in distilled water served as the positive control. SC50 was estimated as the concentration of sample which scavenges 50 % of free radicals.

O=C1O[C@H]([C@@H](O)CO)C(O)=C1O [Ascorbic acid]
FRAP assay (FRAP assay): 2278 ± 15 μmol Fe^2+/mg extract | DPPH assay (SC50) [1]: 0.107 ± 0.004 mg/mL
